Test results taken from ChEMBL document CHEMBL3826894, “Structural modification of luteolin from Flos Chrysanthemi leads to increased tumor cell growth inhibitory activity” (Bioorg Med Chem Lett, 2016).

Experiments:
[1] = Cytotoxicity against human HL60 cells assessed as inhibition of cell growth at 100 uM after 72 hrs by MTT assay; format: functional; conditions: HL-60, 72 h, read-out: GI
[2] = Cytotoxicity against human HL60 cells assessed as reduction in cell viability after 72 hrs by MTT assay; format: functional, cell-based; conditions: HL-60, 72 h
[3] = target: T1, Apoptosis regulator Bcl-2 (Homo sapiens, UniProt P10415); experiment: Inhibition of Bcl-2 (unknown origin) using FAM-Bid peptide as substrate at 50 uM by fluorescence polarization-based assay
T1 sequence (P10415 whole entry): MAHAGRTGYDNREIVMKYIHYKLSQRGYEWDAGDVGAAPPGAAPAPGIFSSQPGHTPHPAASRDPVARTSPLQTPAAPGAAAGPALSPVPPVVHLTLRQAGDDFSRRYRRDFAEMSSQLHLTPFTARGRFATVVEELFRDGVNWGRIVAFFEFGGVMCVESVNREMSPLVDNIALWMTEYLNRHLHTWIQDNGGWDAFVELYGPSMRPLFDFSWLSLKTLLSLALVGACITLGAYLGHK

Bcl-2-like protein 1 [4] = target: T2, Bcl-2-like protein 1 (Homo sapiens, UniProt Q07817); experiment: Inhibition of Bcl-XL (unknown origin) using FAM-Bid peptide as substrate at 50 uM by fluorescence polarization-based assay
T2 sequence (Q07817 whole entry): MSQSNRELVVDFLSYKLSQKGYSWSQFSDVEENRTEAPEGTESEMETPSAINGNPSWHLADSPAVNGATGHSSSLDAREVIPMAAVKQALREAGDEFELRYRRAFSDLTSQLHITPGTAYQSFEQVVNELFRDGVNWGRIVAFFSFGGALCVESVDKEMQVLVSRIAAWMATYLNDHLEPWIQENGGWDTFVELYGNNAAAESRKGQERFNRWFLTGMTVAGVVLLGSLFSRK

HEK293 = experiment: Cytotoxicity against human HEK293 cells assessed as reduction in cell viability after 72 hrs by MTT assay; format: cell-based; conditions: HEK293, 72 h
Bcl-2-like protein 1 [5] = target: T2, Bcl-2-like protein 1; experiment: Inhibition of Bcl-XL (unknown origin) using FAM-Bid peptide as substrate by fluorescence polarization-based assay
[6] = target: T1, Apoptosis regulator Bcl-2; experiment: Inhibition of Bcl-2 (unknown origin) using FAM-Bid peptide as substrate by fluorescence polarization-based assay

Which inhibition of growth at 100 µM [1] does the source give for `O=c1cc(-c2cc(O)c(O)cc2Cc2ccccc2Cl)oc2cc(O)cc(O)c12` here?
Its inhibition of growth at 100 µM is 73.4%.

What about the IC50 [2] of the same compound?
Its IC50 is 41.8 µM.

For `O=c1cc(-c2ccc(O)c(O)c2)oc2cc(O)cc(O)c12` [LUTEOLIN], which inhibition of growth at 100 µM [1] is on record?
Its inhibition of growth at 100 µM is 44%.

What about the IC50 [2] of the same compound?
Its IC50 is over 100 µM.

And the inhibition [3]?
Its inhibition is 46%.

What about the inhibition (Bcl-2-like protein 1 [4]) of the same compound?
Its inhibition is 49%.

Which inhibition of growth at 100 µM [1] does the source give for `COc1cc(O)c2c(=O)cc(-c3cc(O)c(O)cc3Cc3ccccc3C)oc2c1` here?
Its inhibition of growth at 100 µM is 90.2%.

What about the IC50 [2] of the same compound?
Its IC50 is 14.9 µM.

Which inhibition of growth at 100 µM [1] does the source give for `COc1cc(O)c2c(=O)cc(-c3cc(O)c(O)cc3Cc3cccc(Cl)c3)oc2c1` here?
The inhibition of growth at 100 µM was 85.5%.

And the IC50 [2]?
Its IC50 is 10.3 µM.

For `Cc1ccccc1Cc1cc(-c2cc(=O)c3c(O)cc(O)cc3o2)cc(O)c1O`, which inhibition of growth at 100 µM [1] is on record?
Its inhibition of growth at 100 µM is 31.5%.

And the IC50 [2]?
Its IC50 is over 100 µM.

With `COc1cc(O)c2c(=O)cc(-c3cc(O)c(O)c(Cc4ccccc4)c3)oc2c1` as the compound, how does the inhibition of growth at 100 µM [1] read?
The inhibition of growth at 100 µM was 37.5%.

And the IC50 [2]?
Its IC50 is over 100 µM.

Which results are given for `COc1cc(O)c2c(=O)cc(-c3cc(O)c(O)cc3Cc3ccc(Cl)cc3)oc2c1`?
inhibition of growth at 100 µM [1]: 92.1%; IC50 [2]: 11.7 µM

Which inhibition of growth at 100 µM [1] does the source give for `O=c1cc(-c2cc(O)c(O)c(Cc3ccccc3)c2)oc2cc(O)cc(O)c12` here?
Its inhibition of growth at 100 µM is 78%.

And the IC50 [2]?
The IC50 was 44 µM.

Which results are given for `COc1cc(O)c2c(=O)cc(-c3cc(O)c(O)c(Cc4ccccc4C)c3)oc2c1`?
inhibition of growth at 100 µM [1]: 68.9%; IC50 [2]: 14.8 µM

With `O=c1cc(-c2cc(O)c(O)cc2Cc2cccc(Cl)c2)oc2cc(O)cc(O)c12` as the compound, how does the inhibition of growth at 100 µM [1] read?
The inhibition of growth at 100 µM was 65.2%.

What about the IC50 [2] of the same compound?
The IC50 was 64.4 µM.

With `Cc1cc2c(C(C)C)c(O)c(O)c(C=O)c2c(O)c1-c1c(C)cc2c(C(C)C)c(O)c(O)c(C=O)c2c1O` [GOSSYPOL] as the compound, how does the inhibition of growth at 100 µM [1] read?
Its inhibition of growth at 100 µM is 92%.

And the IC50 [2]?
Its IC50 is 6.6 µM.

And the IC50 (HEK293)?
The IC50 was 11 µM.

And the inhibition [3]?
The inhibition was 100%.

What about the inhibition (Bcl-2-like protein 1 [4]) of the same compound?
Its inhibition is 100%.

What about the Ki (Bcl-2-like protein 1 [5]) of the same compound?
The Ki was 0.31 µM.

What does the source list for `COc1cc(O)c2c(=O)cc(-c3cc(O)c(O)c(Cc4cccc(Cl)c4)c3)oc2c1`?
inhibition of growth at 100 µM [1]: 85.2%; IC50 [2]: 2.92 µM

For `O=c1cc(-c2cc(O)c(O)c(Cc3ccc(Cl)cc3)c2)oc2cc(O)cc(O)c12`, which inhibition of growth at 100 µM [1] is on record?
Its inhibition of growth at 100 µM is 48.6%.

And the IC50 [2]?
The IC50 was over 100 µM.

With `O=c1cc(-c2cc(O)c(O)cc2Cc2ccc(Cl)cc2)oc2cc(O)cc(O)c12` as the compound, how does the inhibition of growth at 100 µM [1] read?
The inhibition of growth at 100 µM was 100%.

And the IC50 [2]?
The IC50 was 7.05 µM.

For `COc1cc(O)c2c(=O)cc(-c3cc(O)c(O)cc3Cc3ccccc3)oc2c1`, which inhibition of growth at 100 µM [1] is on record?
The inhibition of growth at 100 µM was 82%.

And the IC50 [2]?
The IC50 was 14.9 µM.

What about the inhibition [3] of the same compound?
Its inhibition is 100%.

What about the Ki [6] of the same compound?
The Ki was 1.3 µM.

And the inhibition (Bcl-2-like protein 1 [4])?
Its inhibition is 100%.

What about the Ki (Bcl-2-like protein 1 [5]) of the same compound?
Its Ki is 2.5 µM.

With `COc1cc(O)c2c(=O)cc(-c3cc(O)c(O)c(Cc4ccccc4Cl)c3)oc2c1` as the compound, how does the inhibition of growth at 100 µM [1] read?
Its inhibition of growth at 100 µM is 80.8%.

And the IC50 [2]?
The IC50 was 13.9 µM.

With `O=c1cc(-c2cc(O)c(O)cc2Cc2ccccc2)oc2cc(O)cc(O)c12` as the compound, how does the inhibition of growth at 100 µM [1] read?
The inhibition of growth at 100 µM was 80%.

And the IC50 [2]?
Its IC50 is 35.9 µM.

What about the IC50 (HEK293) of the same compound?
Its IC50 is 90.7 µM.

What about the inhibition [3] of the same compound?
The inhibition was 96%.

And the Ki [6]?
The Ki was 4.6 µM.

And the inhibition (Bcl-2-like protein 1 [4])?
The inhibition was 70%.

What about the Ki (Bcl-2-like protein 1 [5]) of the same compound?
The Ki was 8.4 µM.

With `COc1cc(O)c2c(=O)cc(-c3cc(O)c(O)cc3Cc3ccccc3Cl)oc2c1` as the compound, how does the inhibition of growth at 100 µM [1] read?
Its inhibition of growth at 100 µM is 85.8%.

What about the IC50 [2] of the same compound?
The IC50 was 20.5 µM.

With `Cc1cccc(Cc2cc(-c3cc(=O)c4c(O)cc(O)cc4o3)cc(O)c2O)c1` as the compound, how does the inhibition of growth at 100 µM [1] read?
Its inhibition of growth at 100 µM is 71.9%.

And the IC50 [2]?
Its IC50 is 20.9 µM.

With `O=c1cc(-c2cc(O)c(O)c(Cc3ccccc3Cl)c2)oc2cc(O)cc(O)c12` as the compound, how does the inhibition of growth at 100 µM [1] read?
Its inhibition of growth at 100 µM is 30.6%.

And the IC50 [2]?
The IC50 was over 100 µM.

With `COc1cc(O)c2c(=O)cc(-c3cc(O)c(O)c(Cc4cccc(C)c4)c3)oc2c1` as the compound, how does the inhibition of growth at 100 µM [1] read?
Its inhibition of growth at 100 µM is 55%.

And the IC50 [2]?
Its IC50 is 63 µM.

Which inhibition of growth at 100 µM [1] does the source give for `COc1cc(O)c2c(=O)cc(-c3cc(O)c(O)cc3Cc3ccc(C)cc3)oc2c1` here?
The inhibition of growth at 100 µM was 96.4%.

And the IC50 [2]?
Its IC50 is 10.9 µM.

Which inhibition of growth at 100 µM [1] does the source give for `Cc1ccc(Cc2cc(O)c(O)cc2-c2cc(=O)c3c(O)cc(O)cc3o2)cc1` here?
Its inhibition of growth at 100 µM is 19.9%.

What about the IC50 [2] of the same compound?
Its IC50 is over 100 µM.

Which inhibition of growth at 100 µM [1] does the source give for `Cc1ccc(Cc2cc(-c3cc(=O)c4c(O)cc(O)cc4o3)cc(O)c2O)cc1` here?
The inhibition of growth at 100 µM was 49.1%.

What about the IC50 [2] of the same compound?
The IC50 was 100 µM.

Which inhibition of growth at 100 µM [1] does the source give for `O=c1cc(-c2cc(O)c(O)c(Cc3cccc(Cl)c3)c2)oc2cc(O)cc(O)c12` here?
Its inhibition of growth at 100 µM is 76.4%.

And the IC50 [2]?
Its IC50 is 28.8 µM.

Which inhibition of growth at 100 µM [1] does the source give for `COc1cc(O)c2c(=O)cc(-c3cc(O)c(O)cc3Cc3cccc(C)c3)oc2c1` here?
Its inhibition of growth at 100 µM is 86.1%.

What about the IC50 [2] of the same compound?
The IC50 was 9.97 µM.

What about the IC50 (HEK293) of the same compound?
The IC50 was 74.7 µM.
